In PubChem BioAssay AID1361 (SRMLSC, 2008):
Calls of active or inactive are those of the source. How the calls were made is not given here.

Assay: mitochondrial fusion inhibitors, confirmation, cell-based, chemical genetic, wild-type and mutant (AID 1361)
Conditions: Cell-based mitochondrial fusion phenotype, imaging
[1] = mutant cells, measured here: mutant cell line IC50

CCN(CC)c1ccc(NC(=O)Nc2ccccc2C(F)(F)F)cc1
IC50 (WT cells): > 25 µM (inactive) | IC50 [1]: > 25 µM

CN1/C(=C\C(=O)Nc2cccc(Cl)c2)C(C)(C)c2ccccc21
IC50 (WT cells): 9.74 µM | IC50 [1]: 24.7 µM

Cc1ccc(NC(=O)CC2S/C(=N/N=C3\CCCc4ccccc43)NC2=O)cc1 (configuration not stated)
IC50 (WT cells): 22.2 µM | IC50 [1]: > 25 µM

Cc1ccc(Cl)cc1N1CCN(CC(=O)NC2CCCc3ccccc32)CC1 (configuration not stated)
IC50 (WT cells): 11.6 µM | IC50 [1]: 23.7 µM

Clc1cccc(NCc2nnc(SCc3ccc(Cl)cc3Cl)o2)c1
IC50 (WT cells): 10.6 µM | IC50 [1]: > 25 µM

CN(C)c1ccc(S(=O)(=O)c2ccc(Cl)cc2)cc1
IC50 (WT cells): > 25 µM (inactive) | IC50 [1]: > 25 µM

Cc1cc(=O)n2[nH]c(-c3ccc(F)cc3)cc2n1
IC50 (WT cells): > 25 µM (inactive) | IC50 [1]: > 25 µM

CC(C)N1C(=S)SC(C)(C)C1n1oc(=O)n(-c2ccc(Cl)c(Cl)c2)c1=O (configuration not stated)
IC50 (WT cells): > 25 µM (inactive) | IC50 [1]: > 25 µM

CCC(C)Nc1c([N+](=O)[O-])cc(C)cc1[N+](=O)[O-] (configuration not stated)
IC50 (WT cells): > 25 µM (inactive) | IC50 [1]: > 25 µM

O=C(c1ccco1)N1CCN(c2c(-c3ccccc3)c3cc(Cl)ccc3[nH]c2=O)CC1
IC50 (WT cells): 13.2 µM | IC50 [1]: > 25 µM

CCS(=O)(=O)Nc1cccc(-c2cc(-c3ccccc3)c3cc(C)ccc3n2)c1
IC50 (WT cells): 6.46 µM | IC50 [1]: > 25 µM

Cc1ccc2nc(NCCCNC(=O)c3cnccn3)c(C#N)cc2c1
IC50 (WT cells): > 25 µM (inactive) | IC50 [1]: > 25 µM

CC/C(=C\C1CCCCC1)C(NP(=O)(c1ccccc1)c1ccccc1)c1ccccc1 (configuration not stated)
IC50 (WT cells): 7.6 µM | IC50 [1]: > 25 µM

CCOc1ccc(NC(=S)NN(C)C(=S)Nc2ccc(OCC)cc2)cc1
IC50 (WT cells): > 25 µM (inactive) | IC50 [1]: > 25 µM

Cc1[nH]c2ccccc2c1/C=N/NC(=O)C1CC1(c1ccccc1)c1ccccc1 (configuration not stated)
IC50 (WT cells): 7.93 µM | IC50 [1]: > 25 µM

CC(=O)c1ccc(-n2nnnc2SCC(=O)Nc2cccc(NC(=O)c3ccco3)c2)cc1
IC50 (WT cells): > 25 µM (inactive) | IC50 [1]: > 25 µM

Cc1onc(-c2ccccc2Cl)c1C(=O)Nc1sc2c(c1C(N)=O)CCC(C)C2 (configuration not stated)
IC50 (WT cells): 12.2 µM | IC50 [1]: > 25 µM

CCOc1ccc(-c2[nH]ncc2Oc2ccccc2OCC)c(O)c1
IC50 (WT cells): > 25 µM (inactive) | IC50 [1]: > 25 µM

Fc1ccc(N2CCN(c3nc(CN4CCOCC4)nc4scc(-c5ccccc5)c34)CC2)cc1
IC50 (WT cells): 19.6 µM | IC50 [1]: 24 µM

CCCC/C(C)=C/[C@@H](NP(=O)(c1ccccc1)c1ccccc1)c1ccccc1
IC50 (WT cells): 9.84 µM | IC50 [1]: > 25 µM

COc1ccc(NC(=S)Nc2ccc(OCc3ccccc3)cc2)c(OC)c1
IC50 (WT cells): 17.4 µM | IC50 [1]: 24.9 µM

O=C1C(Cl)=C(NC2CCCCC2)C(=O)N1Cc1ccccc1
IC50 (WT cells): 19.1 µM | IC50 [1]: > 25 µM

c1ccc2c(c1)[nH]c1c(N3CCCC3)ncnc12
IC50 (WT cells): > 25 µM (inactive) | IC50 [1]: > 25 µM

CCc1ccccc1NC(=O)/C(=C/c1ccccc1)c1ccccc1
IC50 (WT cells): 17.4 µM | IC50 [1]: > 25 µM

Cc1cc(=O)[nH]c(SCC(N)=O)c1C#N
IC50 (WT cells): > 25 µM (inactive) | IC50 [1]: > 25 µM

CCOc1cccc(Oc2ncccc2C(=O)/C(C#N)=C/N(C)C)c1
IC50 (WT cells): > 25 µM (inactive) | IC50 [1]: > 25 µM

CC(Sc1ccc(Cl)cc1)C(=O)Nc1ccccc1-c1ccccc1 (configuration not stated)
IC50 (WT cells): 13 µM | IC50 [1]: > 25 µM

CSc1ccc(OC2CCCCC2NS(=O)(=O)c2ccc(Cl)cc2)cc1 (configuration not stated)
IC50 (WT cells): 16.2 µM | IC50 [1]: > 25 µM

CSc1nc2ccc(NS(=O)(=O)c3c(Cl)cccc3Cl)cc2s1
IC50 (WT cells): 19.3 µM | IC50 [1]: > 25 µM

CCN(CC)c1nc(-c2ccccc2)ncc1S(=O)(=O)c1ccc(C)cc1
IC50 (WT cells): 11 µM | IC50 [1]: > 25 µM

CC/C(=C(/CC)c1ccc(O)cc1)c1ccc(O)cc1
IC50 (WT cells): 23.8 µM | IC50 [1]: > 25 µM

CC(C)c1ccc(OCc2nc(-c3ccccn3)no2)c(Br)c1
IC50 (WT cells): 15.6 µM | IC50 [1]: 20.8 µM

Cc1ccc(NC(=S)N(Cc2ccc(Br)cc2)Cc2ccc(C(=O)O)cc2)cc1C
IC50 (WT cells): > 25 µM (inactive) | IC50 [1]: > 25 µM

COCCN(C(=S)Nc1c(C)cc(C)cc1C)C(C)c1cccs1 (configuration not stated)
IC50 (WT cells): 23.3 µM | IC50 [1]: > 25 µM

O=C(Nc1ccc2c(c1)OCO2)c1ccccc1SCC(=O)N1CCCC1
IC50 (WT cells): > 25 µM (inactive) | IC50 [1]: > 25 µM

CC1(C)CC(=O)C2=C(C1)N(c1ccc(F)cc1)C(=O)C2(O)C(F)(F)F (configuration not stated)
IC50 (WT cells): > 25 µM (inactive) | IC50 [1]: > 12.5 µM

O=C(NCCCN1CCOCC1)c1ccccc1-c1ccccc1
IC50 (WT cells): > 25 µM (inactive) | IC50 [1]: > 25 µM

O=C(CNC(=S)N(Cc1ccccc1)Cc1ccccc1F)NCCc1ccc(Cl)cc1
IC50 (WT cells): 4.01 µM | IC50 [1]: > 25 µM

c1ccc(-c2nc(N3CCCCC3)nc3ccccc23)cc1
IC50 (WT cells): 18.3 µM | IC50 [1]: 19.4 µM

Cc1ccc(C2=CC(C)(c3ccc(C)cc3)Nc3nc(C(F)(F)F)nn32)cc1 (configuration not stated)
IC50 (WT cells): 7.63 µM | IC50 [1]: > 25 µM

Cc1nn(-c2cc(C)c3ccccc3n2)c2c1C1C(C2)C1(C)C (configuration not stated)
IC50 (WT cells): > 25 µM (inactive) | IC50 [1]: > 25 µM
